Read-outs that look alike come from different tables or passages of the source. Each block holds one compound with its values, some of them ahead of it.
What was measured:
[1] = Plasma Cmin and Cmax of PI/NNRTI in HIV-positive women on cART (LC-MS/MS); format: in vivo, human; settings: for Cmin Intra-patient CV median (IQR) / Cmax median ratio to historical population mean (IQR) / Cmax n (%) >1.5 Historical pop mean (percent of participants) / Cmin median ratio to historical population mean (IQR) / Cmin n (%) >1.5 historical pop Mean (percent of participants) / Cmax Inter-patient CV / Cmin Inter-patient CV / Cmin Study participants median (IQR) / Cmin Mean (SD) / Cmax at 2 h / Cmax / Cmax at 5 h / Cmax at 3 h: HIV-positive women; for Cmin Intra-patient CV median (IQR): 3 weekly visits; for Cmax Inter-patient CV: from individual median Cmax; for Cmin Inter-patient CV: from individual median Cmin; for Cmin Study participants median (IQR) / Cmin Mean (SD) / Cmax at 2 h / Cmax / Cmax at 5 h / Cmax at 3 h: plasma; for Cmin Study participants median (IQR) / Cmin Mean (SD): pre-dose, in ng/mL; for Cmax at 2 h / Cmax / Cmax at 5 h / Cmax at 3 h: female, human, oral; for Cmax at 2 h: 2 hours post-dose; for inter-patient variability (CV) for both Cmin and Cmax, in words / intra-patient variability for Cmax, in words / intra-patient variability for Cmin, in words: compared among the regimens; for inter-patient variability (CV) for both Cmin and Cmax, in words / intra-patient variability for Cmax, in words: nevirapine and lopinavir/ritonavir as BID; for intra-patient variability for Cmin, in words: nevirapine as BID; for Cmax at 5 h: 600 mg, 5 hours post-dose; for Cmax at 3 h: 3 hours post-dose
Protocol: Patients were asked to fast from midnight of the previous night. One hour before their scheduled morning dose the pre-dose blood collection was drawn (Cmin t) (alternative arrangements were made if the patient took their drugs in the evening). […] Concentrations of the PIs and the NNRTIs in plasma were measured simultaneously by sensitive and selective, validated high-performance liquid chromatography coupled to tandem mass-spectroscopy (LC-MS/MS). All samples were analyzed at the pharmacokinetic laboratory at the Ottawa Hospital Research Institute in Ottawa, Canada. The PK endpoints for each patient were determined by taking the median of the three weekly values for the Cmin and Cmax. The rationale for measuring drug levels at three separate time points was that there is potentially intra-individual variability in drug levels, especially for PIs. Using the median value for the endpoints eliminated outliers. The three drug level measurements allowed for the calculation of intra-patient variability. […] Next, for each subject the ratio of their median Cmin and Cmax for their main PI or NNRTI to this published drug level was calculated and used as the primary outcome as previously reported by Burger et al. […] Inter-patient variability of Cmin and Cmax for each antiretroviral drug was assessed by calculating the coefficient of variation (CV) using each individual’s median Cmin and Cmax. […] These values are summarized using median and IQR of the individual CVs. […] Finally, linear regression models were fit to assess correlates of the square root-transformed Cmin and Cmax ratios. […] The regression models included indicator variables to account for the different antiretroviral medications and each potential correlate was included separately in an adjusted model. Statistical analyses were performed using SAS Version 9.2 (SAS Institute, Cary, North Carolina, USA).

[2] = historical HIV population, atazanavir 400 mg QD; cited from earlier work
[3] = cited from earlier work
[4] = compared among the antiretrovirals
[5] = 400 mg, 400 mg QD, read-out: Cmax Study participants median (IQR)
[6] = 400 mg, 400 QD, read-out: Cmax Mean (SD)

Compound: COC(=O)N[C@H](C(=O)N[C@@H](Cc1ccccc1)[C@@H](O)CN(Cc1ccc(-c2ccccn2)cc1)NC(=O)[C@@H](NC(=O)OC)C(C)(C)C)C(C)(C)C [Atazanavir, atazanavir]
Cmin Intra-patient CV median (IQR) ([1]; 400 QD): 57.4 (40.5-86.7)
Cmax median ratio to historical population mean (IQR) ([1]; 400 QD): 0.59 (0.31-0.94)
Cmax n (%) >1.5 Historical pop mean (percent of participants) ([1]; 400 QD): 0 (0.0%)
Cmin median ratio to historical population mean (IQR) ([1]; 400 QD): 0.78 (0.35-1.37)
Cmin n (%) >1.5 historical pop Mean (percent of participants) ([1]; 400 QD): 2 (22.2%)
Cmax median ratio to historical population mean (IQR) ([1]; all doses of the drug pooled): 0.65 (0.44-0.87)
Cmax n (%) >1.5 Historical pop mean (percent of participants) ([1]; all doses of the drug pooled): 0 (0.0%)
Cmin median ratio to historical population mean (IQR) ([1]; all doses of the drug pooled): 0.95 (0.53-1.42)
Cmin n (%) >1.5 historical pop Mean (percent of participants) ([1]; all doses of the drug pooled): 6 (22.2%)
Cmax Inter-patient CV ([1]; 400 QD): 57.3%
Cmin Inter-patient CV ([1]; 400 QD): 78.0%
Cmin Study participants median (IQR) ([1]; 400 mg QD): 214 (95–373)
Cmin Mean (SD) ([1]; 400 QD): 250.4 (195.4)
inter-patient variability, in words [1, 4]: greatest observed inter-patient variability
ratios of both Cmin and Cmax versus historical reference values, in words [1, 4]: lowest ratios
Cmax at 2 h [1, 5]: 1870 ng/mL
Cmax at 2 h [1, 6]: 2000 ng/mL
Inter- and intra-patient variability, in words ([1]; particularly when not boosted with ritonavir): high
Cmax Population mean [2]: 3150 ng/mL
increase in AUC in women ([3]; in vivo): approximately 20%

Cmin Intra-patient CV median (IQR) ([1]; 400 BID boosted with ritonavir): 23.8 (12.8-75.8)
Cmin Intra-patient CV median (IQR) ([1]; 800 QD boosted with ritonavir): 63.4 (35.2- 115)
Cmax n (%) >1.5 Historical pop mean (percent of participants) ([1]; 400 BID boosted with ritonavir): 0 (0.0%)
Cmin n (%) >1.5 historical pop Mean (percent of participants) ([1]; 400 BID boosted with ritonavir): 3 (18.8%)
Cmax n (%) >1.5 Historical pop mean (percent of participants) ([1]; 800 QD boosted with ritonavir): 0 (0.0%)
Cmin n (%) >1.5 historical pop Mean (percent of participants) ([1]; 800 QD boosted with ritonavir): 3 (75.0%)
Cmax n (%) >1.5 Historical pop mean (percent of participants) ([1]; all doses of the drug pooled): 0 (0.0%)
Cmin n (%) >1.5 historical pop Mean (percent of participants) ([1]; all doses of the drug pooled): 6 (30.0%)
Cmax Inter-patient CV ([1]; 400 BID boosted with ritonavir): 32.8%
Cmax Inter-patient CV ([1]; 800 QD boosted with ritonavir): 39.8%
Cmin Inter-patient CV ([1]; 400 BID boosted with ritonavir): 44.7%
Cmin Inter-patient CV ([1]; 800 QD boosted with ritonavir): 72.5%
Cmin Study participants median (IQR) ([1]; 400 mg BID with ritonavir 100 mg): 6660 (4360–7710)
Cmin Study participants median (IQR) ([1]; 800 mg QD with ritonavir 200 mg): 6445 (2452–8260)
Cmin Mean (SD) ([1]; 400 BID boosted with ritonavir): 6370.0 (2846.4)
Cmin Mean (SD) ([1]; 800 QD boosted with ritonavir): 5356.2 (3882.3)
inter-patient variability (CV) for both Cmin and Cmax, in words [1]: least inter-patient variability
intra-patient variability for Cmax, in words [1]: lowest intra-patient variability
Cmax ([1]; 800 mg QD with ritonavir 200 mg, read-out: Cmax Study participants median (IQR)): 11700 ng/mL
Cmax ([1]; 800 QD boosted with ritonavir, read-out: Cmax Mean (SD)): 11200 ng/mL
Compound: Cc1cccc(C)c1OCC(=O)N[C@@H](Cc1ccccc1)[C@@H](O)C[C@H](Cc1ccccc1)NC(=O)[C@H](C(C)C)N1CCCNC1=O [Lopinavir boosted with ritonavir, lopinavir]
increase in AUC in women ([3]; in vivo): approximately 20%

Compound: Cc1ccnc2c1NC(=O)c1cccnc1N2C1CC1 [Nevirapine, nevirapine]
Cmin Intra-patient CV median (IQR) ([1]; 200 BID): 13.9 (10.2-27.8)
Cmin Intra-patient CV median (IQR) ([1]; 400 QD): 21.3 (12.1-44.9)
Cmax median ratio to historical population mean (IQR) ([1]; 200 BID): 0.96 (0.84-1.37)
Cmax n (%) >1.5 Historical pop mean (percent of participants) ([1]; 200 BID): 2 (18.2%)
Cmin median ratio to historical population mean (IQR) ([1]; 200 BID): 1.41 (0.91-1.93)
Cmin n (%) >1.5 historical pop Mean (percent of participants) ([1]; 200 BID): 5 (45.5%)
Cmax median ratio to historical population mean (IQR) ([1]; 400 QD): 0.96 (0.72-1.40)
Cmax n (%) >1.5 Historical pop mean (percent of participants) ([1]; 400 QD): 1 (12.5%)
Cmin median ratio to historical population mean (IQR) ([1]; 400 QD): 2.08 (0.90-2.53)
Cmin n (%) >1.5 historical pop Mean (percent of participants) ([1]; 400 QD): 5 (62.5%)
Cmax median ratio to historical population mean (IQR) ([1]; all doses of the drug pooled): 0.96 (0.81-1.37)
Cmax n (%) >1.5 Historical pop mean (percent of participants) ([1]; all doses of the drug pooled): 3 (15.8%)
Cmin median ratio to historical population mean (IQR) ([1]; all doses of the drug pooled): 1.62 (0.91-2.32)
Cmin n (%) >1.5 historical pop Mean (percent of participants) ([1]; all doses of the drug pooled): 10 (52.6%)
Cmax Inter-patient CV ([1]; 200 BID): 37.8%
Cmax Inter-patient CV ([1]; 400 QD): 39.9%
Cmin Inter-patient CV ([1]; 200 BID): 45.4%
Cmin Inter-patient CV ([1]; 400 QD): 57.0%
Cmin Study participants median (IQR) ([1]; 200 mg BID): 5270 (3380–7190)
Cmin Study participants median (IQR) ([1]; 400 mg QD): 5995 (2590–7275)
Cmin Mean (SD) ([1]; 200 BID): 5693.6 (2586.8)
Cmin Mean (SD) ([1]; 400 QD): 5027.9 (2867.2)
Cmin ratio to published population mean, in words [1, 4]: highest ratios
inter-patient variability (CV) for both Cmin and Cmax, in words [1]: least inter-patient variability
intra-patient variability for Cmax, in words [1]: lowest intra-patient variability
intra-patient variability for Cmin, in words [1]: lowest intra-patient variability
Cmax at 2 h ([1]; 200 mg, 200 mg BID, read-out: Cmax Study participants median (IQR)): 5510 ng/mL
Cmax at 2 h ([1]; 200 mg, 200 BID, read-out: Cmax Mean (SD)): 6490 ng/mL
Cmax at 2 h [1, 5]: 6400 ng/mL
Cmax at 2 h [1, 6]: 6920 ng/mL
exposure in pregnant women ([3]; in vivo): lower
serum levels in women ([3]; in vivo): higher

Compound: CC(C)(C)NC(=O)[C@@H]1C[C@@H]2CCCC[C@@H]2CN1C[C@@H](O)[C@H](Cc1ccccc1)NC(=O)[C@H](CC(N)=O)NC(=O)c1ccc2ccccc2n1 [saquinavir]
serum levels in women versus men ([3]; in vivo): significantly higher in women than in men

Compound: O=C1Nc2ccc(Cl)cc2[C@@](C#CC2CC2)(C(F)(F)F)O1 [Efavirenz, efavirenz]
Cmin Intra-patient CV median (IQR) ([1]; 600 QD): 17.7 (10.5-25.1)
Cmax median ratio to historical population mean (IQR) ([1]; 600 QD): 0.79 (0.57-1.27)
Cmax n (%) >1.5 Historical pop mean (percent of participants) ([1]; 600 QD): 4 (25.0%)
Cmin median ratio to historical population mean (IQR) ([1]; 600 QD): 0.95 (0.67-1.95)
Cmin n (%) >1.5 historical pop Mean (percent of participants) ([1]; 600 QD): 6 (37.5%)
Cmax Inter-patient CV ([1]; 600 QD): 52.4%
Cmin Inter-patient CV ([1]; 600 QD): 55.0%
Cmin Study participants median (IQR) ([1]; 600 mg QD): 1680 (1180–3450)
Cmin Mean (SD) ([1]; 600 QD): 2196.9 (1209.2)
intra-patient variability for Cmax, in words [1]: lowest intra-patient variability
intra-patient variability for Cmin, in words [1]: lowest intra-patient variability
Cmax at 5 h ([1]; 600 mg QD, read-out: Cmax Study participants median (IQR)): 3240 ng/mL
Cmax at 5 h ([1]; 600 QD, read-out: Cmax Mean (SD)): 3930 ng/mL
serum levels in women ([3]; in vivo): higher

Compound: COC(=O)N[C@H](C(=O)N[C@@H](Cc1ccccc1)[C@@H](O)CN(Cc1ccc(-c2ccccn2)cc1)NC(=O)[C@@H](NC(=O)OC)C(C)(C)C)C(C)(C)C [Atazanavir boosted with ritonavir, atazanavir]
Cmin Intra-patient CV median (IQR) ([1]; 300 QD boosted with ritonavir): 26.3 (15.6-56.1)
Cmax median ratio to historical population mean (IQR) ([1]; 300 QD boosted with ritonavir): 0.66 (0.51-0.85)
Cmax n (%) >1.5 Historical pop mean (percent of participants) ([1]; 300 QD boosted with ritonavir): 0 (0.0%)
Cmin median ratio to historical population mean (IQR) ([1]; 300 QD boosted with ritonavir): 0.97 (0.77-1.42)
Cmin n (%) >1.5 historical pop Mean (percent of participants) ([1]; 300 QD boosted with ritonavir): 4 (22.2%)
Cmax Inter-patient CV ([1]; 300 QD boosted with ritonavir): 41.4%
Cmin Inter-patient CV ([1]; 300 QD boosted with ritonavir): 65.6%
Cmin Study participants median (IQR) ([1]; 300 mg QD with ritonavir 100 mg): 835 (663–1220)
Cmin Mean (SD) ([1]; 300 QD boosted with ritonavir): 1065.6 (699.2)
Cmax at 3 h ([1]; 300 mg QD with ritonavir 100 mg, read-out: Cmax Study participants median (IQR)): 3430 ng/mL
Cmax at 3 h ([1]; 300 QD boosted with ritonavir, read-out: Cmax Mean (SD)): 3530 ng/mL

Compound: CC(C)CN(C[C@@H](O)[C@H](Cc1ccccc1)NC(=O)O[C@H]1CO[C@H]2OCC[C@H]21)S(=O)(=O)c1ccc(N)cc1 [darunavir]
increase in AUC in women ([3]; women versus men, product monographs): approximately 20%

Reference: publication PMC3679788, “Factors affecting antiretroviral pharmacokinetics in HIV-infected women with virologic suppression on combination antiretroviral therapy: a cross-sectional study” (BMC Infectious Diseases, 2013)
